Where a SMILES comes first, the peptide text is derived from it. The star is where a group is joined. Bz = O=C(c1ccccc1)*
Biological target: T1, APC (303–739) (Homo sapiens, UniProt P25054)
T1 sequence (P25054 303-739): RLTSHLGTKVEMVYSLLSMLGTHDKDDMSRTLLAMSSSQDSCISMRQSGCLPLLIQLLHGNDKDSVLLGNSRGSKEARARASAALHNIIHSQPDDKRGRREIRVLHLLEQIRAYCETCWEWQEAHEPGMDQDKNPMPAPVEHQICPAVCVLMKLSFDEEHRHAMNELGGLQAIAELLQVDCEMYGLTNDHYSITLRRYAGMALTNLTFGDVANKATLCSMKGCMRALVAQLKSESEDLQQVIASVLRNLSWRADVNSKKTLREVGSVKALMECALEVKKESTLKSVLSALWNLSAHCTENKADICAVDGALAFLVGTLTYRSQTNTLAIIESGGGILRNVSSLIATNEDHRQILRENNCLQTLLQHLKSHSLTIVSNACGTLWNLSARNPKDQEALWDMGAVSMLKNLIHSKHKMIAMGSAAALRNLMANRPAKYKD
Experiment: FP competitive assay using tracer 7
Type: binding
Settings: for IC50: Table 3 source data
Outline: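 Peptide dilutions were first incubated 1 h at room temperature with APC (303–739) in HEPES pH 7.5 buffer containing 300 mM NaCl, EDTA and DTT. Added FITC tracer 7 (400 nM stock) displaced over a further 1.5 h before polarization reading. IC50 values came from nonlinear regression fits of triplicate data.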

## CC(C)C[C@H](NC(=O)[C@H](CO)NC(=O)[C@H](CCC(=O)O)NC(=O)CNC(=O)[C@H](C)NC(=O)c1ccccc1)C(=O)N[C@@H](Cc1ccc(O)cc1)C(=O)N[C@@H](CCC(=O)O)C(N)=O [MAI-511] (Bz-AGESLYE-NH2)
Conc. 0.0002 μM, individual repeats, Fig3b
  inhibition at 0.0002 µM: 1.5%
Conc. 0.0005 μM, individual repeats, Fig3b
  inhibition at 0.0005 µM: 1.2%
Conc. 0.001 μM, individual repeats, Fig3b
  inhibition at 0.001 µM: 1.9%
Conc. 0.002 μM, individual repeats, Fig3b
  inhibition at 0.002 µM: 1.5%
Conc. 0.0024 μM, individual repeats, Fig3b
  inhibition at 0.0024 µM: 1.1%
Conc. 0.0039 μM, individual repeats, Fig3b
  inhibition at 0.0039 µM: 2.5%
Conc. 0.0049 μM, individual repeats, Fig3b
  inhibition at 0.0049 µM: 1.1%
Conc. 0.006 μM, individual repeats, Fig3b
  inhibition at 0.006 µM: 4.7%
Conc. 0.0078 μM, individual repeats, Fig3b
  inhibition at 0.0078 µM: 5.3%
Conc. 0.0098 μM, individual repeats, Fig3b
  inhibition at 0.0098 µM: 6.1%
Conc. 0.012 μM, individual repeats, Fig3b
  inhibition at 0.012 µM: 7.9%
Conc. 0.0156 μM, individual repeats, Fig3b
  inhibition at 0.0156 µM: 8.5%
Conc. 0.0195 μM, individual repeats, Fig3b
  inhibition at 0.0195 µM: 11.3%
Conc. 0.024 μM, individual repeats, Fig3b
  inhibition at 0.024 µM: 16.8%
Conc. 0.0313 μM, individual repeats, Fig3b
  inhibition at 0.0313 µM: 22.7%
Conc. 0.0391 μM, individual repeats, Fig3b
  inhibition at 0.0391 µM: 22.5%
Conc. 0.049 μM, individual repeats, Fig3b
  inhibition at 0.049 µM: 31.3%
Conc. 0.0625 μM, individual repeats, Fig3b
  inhibition at 0.0625 µM: 39%
Conc. 0.0781 μM, individual repeats, Fig3b
  inhibition at 0.0781 µM: 39.5%
Conc. 0.098 μM, individual repeats, Fig3b
  inhibition at 0.098 µM: 49%
Conc. 0.125 μM, individual repeats, Fig3b
  inhibition at 0.125 µM: 56.2%
Conc. 0.1563 μM, individual repeats, Fig3b
  inhibition at 0.1563 µM: 58.3%
Conc. 0.195 μM, individual repeats, Fig3b
  inhibition at 0.195 µM: 67.3%
Conc. 0.25 μM, individual repeats, Fig3b
  inhibition at 0.25 µM: 72.5%
Conc. 0.3125 μM, individual repeats, Fig3b
  inhibition at 0.3125 µM: 72.1%
Conc. 0.391 μM, individual repeats, Fig3b
  inhibition at 0.391 µM: 80.1%
Conc. 0.5 μM, individual repeats, Fig3b
  inhibition at 0.5 µM: 83.2%
Conc. 0.625 μM, individual repeats, Fig3b
  inhibition at 0.625 µM: 82.5%
Conc. 0.781 μM, individual repeats, Fig3b
  inhibition at 0.781 µM: 86.3%
Conc. 1 μM, individual repeats, Fig3b
  inhibition at 1 µM: 90.6%
Conc. 1.25 μM, individual repeats, Fig3b
  inhibition at 1.25 µM: 89.5%
Conc. 1.563 μM, individual repeats, Fig3b
  inhibition at 1.563 µM: 91.5%
Conc. 2 μM, individual repeats, Fig3b
  inhibition at 2 µM: 95.4%
Conc. 2.5 μM, individual repeats, Fig3b
  inhibition at 2.5 µM: 93.6%
Conc. 3.125 μM, individual repeats, Fig3b
  inhibition at 3.125 µM: 93.5%
Conc. 5 μM, individual repeats, Fig3b
  inhibition at 5 µM: 95.7%
Conc. 6.25 μM, individual repeats, Fig3b
  inhibition at 6.25 µM: 94.1%
Conc. 10 μM, individual repeats, Fig3b
  inhibition at 10 µM: 96.6%
Conc. 12.5 μM, individual repeats, Fig3b
  inhibition at 12.5 µM: 95%
Conc. 20 μM, individual repeats, Fig3b
  inhibition at 20 µM: 97.1%
Conc. 25 μM, individual repeats, Fig3b
  inhibition at 25 µM: 95.6%
Conc. 50 μM, individual repeats, Fig3b
  inhibition at 50 µM: 94.9%
IC50(μM) Repeat 1, Repeat 1
  IC50: 0.0848 µM
IC50(μM) Repeat 2, Repeat 2
  IC50: 0.102 µM
IC50(μM) Repeat 3, Repeat 3
  IC50: 0.108 µM
IC50(μM) mean, mean of 3 repeats
  IC50: 0.0984 µM
Repeat 1, Conc. 0.0024 μM
  mean (FP signal, FigS5): 300.7
Repeat 1, Conc. 0.0049 μM
  mean (FP signal, FigS5): 300.5
Repeat 1, Conc. 0.0098 μM
  mean (FP signal, FigS5): 288
Repeat 1, Conc. 0.0195 μM
  mean (FP signal, FigS5): 274.7
Repeat 1, Conc. 0.0391 μM
  mean (FP signal, FigS5): 246.3
Repeat 1, Conc. 0.0781 μM
  mean (FP signal, FigS5): 203.3
Repeat 1, Conc. 0.1563 μM
  mean (FP signal, FigS5): 155.7
Repeat 1, Conc. 0.3125 μM
  mean (FP signal, FigS5): 120.7
Repeat 1, Conc. 0.625 μM
  mean (FP signal, FigS5): 94.3
Repeat 1, Conc. 1.25 μM
  mean (FP signal, FigS5): 76.7
Repeat 1, Conc. 2.5 μM
  mean (FP signal, FigS5): 66.3
Repeat 1, Conc. 5 μM
  mean (FP signal, FigS5): 61
Repeat 1, Conc. 10 μM
  mean (FP signal, FigS5): 58.7
Repeat 1, Conc. 20 μM
  mean (FP signal, FigS5): 57.3
Repeat 2, Conc. 0.0002 μM
  mean (FP signal, FigS5): 300.7
Repeat 2, Conc. 0.0005 μM
  mean (FP signal, FigS5): 301.3
Repeat 2, Conc. 0.001 μM
  mean (FP signal, FigS5): 299.7
Repeat 2, Conc. 0.002 μM
  mean (FP signal, FigS5): 300.7
Repeat 2, Conc. 0.0039 μM
  mean (FP signal, FigS5): 298
Repeat 2, Conc. 0.0078 μM
  mean (FP signal, FigS5): 291
Repeat 2, Conc. 0.0156 μM
  mean (FP signal, FigS5): 283
Repeat 2, Conc. 0.0313 μM
  mean (FP signal, FigS5): 247.3
Repeat 2, Conc. 0.0625 μM
  mean (FP signal, FigS5): 206.3
Repeat 2, Conc. 0.125 μM
  mean (FP signal, FigS5): 163
Repeat 2, Conc. 0.25 μM
  mean (FP signal, FigS5): 122
Repeat 2, Conc. 0.5 μM
  mean (FP signal, FigS5): 95.3
Repeat 2, Conc. 1 μM
  mean (FP signal, FigS5): 76.7
Repeat 2, Conc. 2 μM
  mean (FP signal, FigS5): 64.7
Repeat 3, Conc. 0.006 μM
  mean (FP signal, FigS5): 301.3
Repeat 3, Conc. 0.012 μM
  mean (FP signal, FigS5): 293
Repeat 3, Conc. 0.024 μM
  mean (FP signal, FigS5): 270
Repeat 3, Conc. 0.049 μM
  mean (FP signal, FigS5): 232.3
Repeat 3, Conc. 0.098 μM
  mean (FP signal, FigS5): 186.3
Repeat 3, Conc. 0.195 μM
  mean (FP signal, FigS5): 138.7
Repeat 3, Conc. 0.391 μM
  mean (FP signal, FigS5): 105.3
Repeat 3, Conc. 0.781 μM
  mean (FP signal, FigS5): 89.3
Repeat 3, Conc. 1.563 μM
  mean (FP signal, FigS5): 75.7
Repeat 3, Conc. 3.125 μM
  mean (FP signal, FigS5): 70.7
Repeat 3, Conc. 6.25 μM
  mean (FP signal, FigS5): 69
Repeat 3, Conc. 12.5 μM
  mean (FP signal, FigS5): 66.7
Repeat 3, Conc. 25 μM
  mean (FP signal, FigS5): 65
Repeat 3, Conc. 50 μM
  mean (FP signal, FigS5): 67

From PMC9402538, “Rational design of a sensitivity-enhanced tracer for discovering efficient APC–Asef inhibitors” (Nature Communications, 2022)
